Data reported in patent US10226435B2, “Compositions and methods for restoring the stratum corneum and treating dermatological diseases” (New York University, priority 2011, dated 2019).

Legend:
[1] = system: human transplanted pancreatic adenocarcinomas; details: growth of human transplanted pancreatic adenocarcinomas; cited from earlier work
[2] = system: skin of SKH1 hairless mice; assay: Sunburn (erythema) prevention by terpenes in UVR-exposed hairless mice; details: 4 daily 30 microL droplets per os before 15 minute exposure to 3.0 kJ/m2 UVR
Description: All experiments were performed with female hairless mice (SKH1) utilizing solar spectrum ultraviolet radiation (UVR). Each experiment was performed in triplicate including controls and UVR-exposed mice and included a total of 22 mice per experiment for a total of 66 mice. The protocol included untreated mice, UVR-irradiated mice as controls for the terpene treatments, UVR+terpene mice and terpene-only mice.
Four solar simulating FS-20 fluorescent lamps were used to deliver 3 kJ/m^2 measured by a calibrated International Light UV radiometer at the lamp distance between 20 to 24 cm. The UVR dose was selected to be just above the minimal erythemal dose for producing a ‘sunburn’ reaction in mouse skin (this is very similar to the minimal erythemal dose of fair-skinned humans).
Each terpene was given to each mouse per os (by mouth) in 15-30 μL droplets (˜15-30 μg) via micropipette once each day for 4 consecutive days prior to and/or subsequent to UVR exposure. Animals were observed and photographed every 24 hours for a period of 6-7 days after the irradiation. Each terpene was administered in pure form.
The UVR exposure of 3 kJ/m^2 was delivered seven (7) days after the last dose was administered. The animals were observed and photographed. […] Liponeate, a triglyceride fraction of coconut oil was used as a diluent. Concentration 1, 10 and 100% were tested. […]

skin [3] = details: in vivo; cited from earlier work
[4] = system: mouse skin gene expression; assay: Gene expression microarray analysis of mouse skin; type: in vivo; details: for loricrin and filaggrin and vascular endothelial growth factor (VEGF) genes / matrix metalloproteinases: ingestion, animal models; for inflammation genes induced by UVR: per os daily for 4 days in 30 microL droplets prior to irradiation
Description: Animals for the histology and microarray analysis were euthanized 24 hours after 4 days of terpene pre-feed and the UVR exposure.
Gene expression microarray analysis was performed as follows: RNA was extracted from a 0.1 g sample of mouse skin and an equal quantity of keratinocytes by using the TRIZOL reagent (Invitrogen, Carlsbad, Calif., USA) according to the manufacture's instructions and 200 μg of total RNA was used for the isolation of poly A+mRNA by using Oligotex mRNA mini columns (QIAGEN, Valencia, Calif., USA). The final centrifugation was performed after the incubation with 1/10 volume of 3.0 M NaOAc, 2.5 volumes of ethanol and 1 μl glycogen (Boehringer Mannheim GmbH, Mannheim, Germany) at −20° C. overnight. Then the pellet was resuspended in diethylpyrocarbonate (DEPC)-treated water. RNA was labeled with biotin and hybridized to a Mouse genome 430_2 GeneChip® microarray (Affymetrix, Inc. Santa Clara, Calif., USA). Data from the Affymetrix mouse expression array chip were imported into the BRB-ArrayTools Version 3.3.0 developed by the Biometric Research Branch of the U.S. National Cancer Institute for normalization and analysis. […] A value of P≤0.001 was chosen as statistically significant. […] For these calculations the entire list of genes on the Affymetrix (mouse 430_2) microarray was used as the reference list.
Mice were treated with either UVR or UVR+beta-damascenone, and samples of tissue were removed from the dorsal skin for RNA extraction and analysis on an Affymetrix Microarray System utilizing mouse whole genome array chips Affy 430_2. The UVR sample served as the control in this preliminary experiment.

[5] = in vivo; cited from earlier work
[6] = system: stratum corneum of Skh1 mouse skin; assay: Thickness of nucleated keratinocyte portion of epidermis versus stratum corneum, H&E histology; type: in vivo
Description: 1. Skin and epidermal thickness (as measured by histology);

[7] = system: dorsal skin of hairless mice; assay: β-damascenone-induced sunburn protection study in hairless mice; type: in vivo, mouse; details: read 5 days later
Description: The present experiment will be performed for evaluating the effectiveness and persistence of sunburn protection afforded by different doses and exposure regimens of a test terpene, β-damascenone. Female SKH-1 strain mice, obtained from Charles River Breeding Labs, Wilmington, Mass., will be fed per os various amounts of the terpene as indicated in the following Tables 4 and 5.

skin [8] = details: in vivo; cited from earlier work; remark: listed apart in the source
breast cancer = details: rats, ionizing radiation or DMBA; cited from earlier work
skin inflammation = details: topical preventive treatment 3 days at 10 mg/kg/day before induction; cited from earlier work
colon cancer = details: rats, 1,2-dimethylhydrazine induced, 8 mg/kg, p<0.01; cited from earlier work
[9] = system: inflammation-relevant gene expression; details: rat skin, x-rays; cited from earlier work
[10] = UVR+beta-damascenone relative to UVR only
[11] = Group 2, 20 μL ×1 oral, section 1 d after final administration, total 20 μL
[12] = Group 3, 10 μL ×4 oral, section 1 d after final administration, total 40 μL
[13] = Group 4, 20 μL ×4 oral, section 1 d after final administration, total 80 μL
[14] = Group 5, 80 μL ×1 oral, section 1 d after final administration, total 80 μL
[15] = Group 6, 20 μL ×1 oral, section 5 d after final administration, total 20 μL
[16] = Group 7, 10 μL ×4 oral, section 5 d after final administration, total 40 μL
[17] = Group 8, 80 μL ×1 oral, section 5 d after final administration, total 80 μL
[18] = Group 9, 20 μL ×4 oral, section 5 d after final administration, total 80 μL
[19] = Group 10, 10 μL ×4 oral, section 12 d after final administration, total 40 μL
[20] = Group 11, 20 μL ×4 oral, section 12 d after final administration, total 80 μL
[21] = day 5 after the exposures were completed
[22] = Group 2, 20 uL × 4 by feeding tube, UVR 1.5 kJ/m^2 5 days after final dose
[23] = Group 3, 10 uL × 4 by feeding tube, UVR 1.5 kJ/m^2 5 days after final dose
[24] = Group 4 (replication of group 2), 20 uL × 4 by feeding tube, UVR 1.5 kJ/m^2 5 days after final dose
[25] = Group 5, 10 uL × 1 by feeding tube, UVR 1.5 kJ/m^2 5 days after dose
[26] = Group 6, 20 uL × 1 by feeding tube, UVR 1.5 kJ/m^2 5 days after dose
[27] = Group 7, 40 uL × 1 by feeding tube, UVR 1.5 kJ/m^2 5 days after dose
[28] = Groups 2 + 4 combined, 20 uL × 4, UVR 1.5 kJ/m^2 5 days after final dose

In the case of CC(C)=CCC/C(C)=C/CO [Geraniol], the “effectiveness relative to perillyl alcohol” value [1] is listed as “about 5 fold”.
In the case of C/C=C/C(=O)C1=C(C)C=CCC1(C)C [beta-damascenone], the “cutaneous inflammation and erythema after UVR” value [2] is given as “blocked”, the skin irritation (skin [3]) is given as “No skin irritation” and the inflammation-relevant genes [4, 10] is given as “strongly down-regulated”. For the same compound, the “number of gene categories significantly (p<0.05) down-regulated” value [4, 10] was 13, the “only significantly (p<0.05) altered up-regulated category at level 4 of Gene Ontology Tree” value [4, 10] was “epidermal cell differentiation” and the “loricrin and filaggrin and vascular endothelial growth factor (VEGF) genes” value [4] was “upregulation”. The matrix metalloproteinases [4] was “downregulation”, the “inflammation genes induced by UVR” value [4] was “blocked” and the LD50 [5] was “greater than 2.0 g/kg”. The “Living Epidermis Thickness” value ([6]; Average (Groups 2-11)) was 34.6 arbitrary units, the “Stratum Corneum Thickness” value ([6]; Average (Groups 2-11)) was 21.0 arbitrary units and the “Living Epidermis Thickness” value [6, 11] was 35.0 arbitrary units. For the same compound, the “Stratum Corneum Thickness” value [6, 11] was 20.0 arbitrary units, the “Living Epidermis Thickness” value [6, 12] was 37.0 arbitrary units and the “Stratum Corneum Thickness” value [6, 12] was 15.3 arbitrary units. For the same compound, the “Living Epidermis Thickness” value [6, 13] was 36.0 arbitrary units, the “Stratum Corneum Thickness” value [6, 13] was 17.8 arbitrary units and the “Living Epidermis Thickness” value [6, 14] was 36.0 arbitrary units. For the same compound, the “Stratum Corneum Thickness” value [6, 14] was 16.3 arbitrary units, the “Living Epidermis Thickness” value [6, 15] was 38.5 arbitrary units and the “Stratum Corneum Thickness” value [6, 15] was 37.0 arbitrary units. The “Living Epidermis Thickness” value [6, 16] was 40.2 arbitrary units, the “Stratum Corneum Thickness” value [6, 16] was 20.2 arbitrary units and the “Living Epidermis Thickness” value [6, 17] was 36.2 arbitrary units. For the same compound, the “Stratum Corneum Thickness” value [6, 17] was 25.5 arbitrary units, the “Living Epidermis Thickness” value [6, 18] was 32.5 arbitrary units and the “Stratum Corneum Thickness” value [6, 18] was 21.2 arbitrary units. The “Living Epidermis Thickness” value [6, 19] was 30.7 arbitrary units, the “Stratum Corneum Thickness” value [6, 19] was 18.7 arbitrary units and the “Living Epidermis Thickness” value [6, 20] was 23.3 arbitrary units. For the same compound, the “Stratum Corneum Thickness” value [6, 20] was 21.7 arbitrary units, the “nucleated keratinocytes in the epidermis” value [6, 21] was “no corresponding increase” and the “thickness of the stratum corneum” value [6, 21] was “highly significant increases”. For the same compound, the “stratum corneum thickness (FIG. 4)” value ([6]; mouse, in vivo) was “consistently thickened”, the “Areas with no sunburn” value [7, 22] was 11.0 and the Areas with sunburn [7, 22] was 1.0. The “Areas with no sunburn” value [7, 23] was 6.0, the Areas with sunburn [7, 23] was 2.0 and the “Areas with no sunburn” value [7, 24] was 8.0. The Areas with sunburn [7, 24] was 0.0, the “Areas with no sunburn” value [7, 25] was 7.0 and the Areas with sunburn [7, 25] was 5.0. For the same compound, the “Areas with no sunburn” value [7, 26] was 10.0, the Areas with sunburn [7, 26] was 2.0 and the “Areas with no sunburn” value [7, 27] was 3.0. For the same compound, the Areas with sunburn [7, 27] was 1.0, the “Areas with no sunburn” value [7, 28] was 19.0 and the Areas with sunburn [7, 28] was 1.0. For the same compound, the phototoxicity or photoallergenity (skin [8]) was “No phototoxicity or photoallergenity”.
For C=C(C)[C@H]1CC=C(C)CC1 [d-limonene], the “initiation of breast cancer” value (breast cancer) is listed as “almost completely prevented”.
In the case of C=C(C)[C@@H]1CCC2=CC(=O)C[C@@H](C)[C@]2(C)C1 [nootkatone], the “cutaneous inflammation and erythema after UVR” value [2] is reported as “blocked”, the “loricrin and filaggrin and vascular endothelial growth factor (VEGF) genes” value [4] is reported as “upregulation” and the matrix metalloproteinases [4] is reported as “downregulation”. The “inflammation genes induced by UVR” value [4] was “blocked”.
For C=C(C)[C@@H]1CC=C(CO)CC1 [perillyl alcohol, reference compound], the “effect on skin inflammation” value (skin inflammation) is listed as “significant effect” and the “initiation of breast cancer” value (breast cancer) is listed as “almost completely prevented”.
In the case of Oc1ccc(C=Cc2cc(O)cc(O)c2)cc1 [resveratrol], the “inhibition of colon cancer” value (colon cancer) is given as 67%.
For vitamin A, the “inflammation-relevant gene expression alterations blocked” value [9] is given as “about 80%”.
